Experimental findings from patent US20260035338A1, “AMINO LIPID COMPOUND AND LIPID NANOPARTICLE FOR DELIVERING BIOACTIVE INGREDIENT” (SHENZHEN SHENXIN BIOTECHNOLOGY CO., LTD., priority 2022, published 2026) are described below.

The test system of test [1] is BALB/c mice. The test can be described thus: In vivo delivery of Fluc mRNA-encapsulating LNP formulations, luciferase signal by In Vivo Imaging System (IVIS). The settings on record: tail vein injection (IV) 70 μL, female BALB/c mice, 6 hours after injection; for Average number of photons (Total in-vivo flux): LNP formulation encapsulating Fluc mRNA (Lipid:DSPC:CHO-HP:M-DMG-2000 48:10:40.5:1.5); for Average number of photons (Liver) / Average number of photons (Spleen): LNP formulation encapsulating Fluc mRNA. As to the method: Animal preparation: Female BALB/c mice of 6-8 weeks old were selected and raised in an SPF grade breeding room. Animal testing was conducted in strict accordance with the guidelines of national health institutions and animal ethics requirements.
In vivo Delivery: prior to injection of the test LNP formulation, the LNP formulation was gently and repeatedly inverted to thoroughly mix the sample of the formulation. A corresponding amount of the LNP formulation was aspirated with a 1 ml insulin syringe, and the LNP formulation was injected by tail vein injection (IV), with 3 mice in duplicate per formulation. Each mouse was injected with 70 μL of the corresponding LNP formulation encapsulating the luciferase mRNA (Fluc mRNA) prepared in Experimental Example 1.
6 hours after injection of LNP formulations, mice were injected with 200 μL D-Luciferin luciferase developing substrate (Catalog No. 122799; Manufacturer: Perkin Elmer). After the substrate was injected, the mice were anesthetized with isoflurane inhalation, and the injection time of luciferase developing substrate was recorded.
The encapsulation efficiency of the lipid nanoparticle encapsulating luciferase mRNA (Fluc mRNA) with a representative amino lipid compound and the fluorescence expression intensity induced by the same are shown in Table 4, with the LNP formulation containing SM-102, 1001 or ALC-0315 as a control LNP formulation. The preparation method of the control LNP formulation was basically the same as that of the LNP formulations in Experimental Example 1, with the difference lying in that the amino lipid compounds of the present disclosure were replaced with SM-102, 1001 or ALC-0315 in the preparation of the control LNP formulation.

The test system of test [2] is immune cell populations in the spleen and PBMC. The test can be described thus: Delivery efficiency of eGFP mRNA LNP to immune cell populations in spleen and peripheral blood (flow cytometry). It is filed as in vivo. The settings on record: eGFP mRNA encapsulating LNP, intravenous, C57BL/6 mice, 12 hours, flow cytometry (FIG. 6 to 7). As to the method:
C57BL/6 mice (3 mice per group) were intravenously injected with eGFP mRNA encapsulating LNP. After 12 hours, the mice were dissected, and the spleen and peripheral blood, were collected to prepare single-cell suspensions of various tissues and organs. After blocking with Fc blocking antibodies and surface staining with fluorescent-labeled antibodies, flow cytometry was conducted to analyze the expression levels of eGFP in various immune cell populations to confirm the delivery efficiency of lipid nanoparticles comprising different amino lipid compounds to immune cell populations in different tissues and organs.
“Blank” in FIG. 6 and FIG. 7 refers to the control group injected with 100 μL Tris buffer.

As to `CCCCCCOC(CCCOC(=O)CCCCCCCCC(CCCCCCCCC(=O)OCCCC(OCCCCCC)OCCCCCC)OC(=O)OCCCN(CC)CC)OCCCCCC` [compound 382], in test [1], the “Average number of photons (Total in-vivo flux)” value is 5.28E+07, the “Average number of photons (Liver)” value stood at 6.78E+06 and the “Average number of photons (Spleen)” value amounted to 1.88E+05. Also, in test [2], the “delivery efficiency to immune cell populations (eGFP expression)” value is listed as “different delivery preferences to different immune cells”.

On to `CCCCCCCCOC(CCCOC(=O)CCCCCCCCC(CCCCCCCCCNC(=O)OCC(OCCCCCC)OCCCCCC)OC(=O)OCCCN(CC)CC)OCCCCCCCC` (centres unmarked) [compound 458], for which, in test [1], the “Average number of photons (Total in-vivo flux)” value is listed as 1.29E+08, the “Average number of photons (Liver)” value is listed as 2.69E+07 and the “Average number of photons (Spleen)” value worked out at 2.60E+06.

`CCCCCCOC(CCCNC(=O)OCCCCCCCC(CCCCCCCCCOC(=O)NCC(OCCCCCC)OCCCCCC)OC(=O)OCCCN(CC)CC)OCCCCCC` (centres unmarked) [compound 459]: in test [1], the “Average number of photons (Total in-vivo flux)” value stood at 3.42E+07, the “Average number of photons (Liver)” value stood at 5.09E+06 and the “Average number of photons (Spleen)” value amounted to 2.52E+06.

Regarding `CCCCCCCOC(CCCOC(=O)CCCCCCCCC(CCCCCCCCC(=O)OCCCC(OCCCCCCC)OCCCCCCC)OC(=O)OCCCN(C)C)OCCCCCCC` [compound 490], in test [1], the “Average number of photons (Total in-vivo flux)” value was determined as 2.65E+07, the “Average number of photons (Liver)” value is 3.68E+06 and the “Average number of photons (Spleen)” value amounted to 5.06E+05.

As to `CCCCCCCCCOC(CCCOC(=O)CCCCCCCCC(CCCCCCCCC(=O)OCCCC(OCCCCCCCCC)OCCCCCCCCC)OC(=O)OCCCN(C)C)OCCCCCCCCC` [compound 849], in test [1], the “Average number of photons (Total in-vivo flux)” value is recorded as 2.67E+07, the “Average number of photons (Liver)” value is given as 4.12E+06 and the “Average number of photons (Spleen)” value is 1.82E+05.

Take `CCCCCCCOC(CCCOC(=O)CCCCCCCCC(CCCCCCCCC(=O)OCCCC(OCCCCC)OCCCCC)OC(=O)OCCCN(C)C)OCCCCCCC` (centres unmarked) [compound 851]: in test [1], the “Average number of photons (Total in-vivo flux)” value turned out to be 1.28E+08, the “Average number of photons (Liver)” value amounted to 2.21E+07 and the “Average number of photons (Spleen)” value amounted to 1.93E+06.

On to `CCCCCCCCCOC(CCCOC(=O)CCCCCCCCC(CCCCCCCCC(=O)OCCCC(OCCCCCC)OCCCCCC)OC(=O)OCCCN(C)C)OCCCCCCCCC` (centres unmarked) [compound 856], for which, in test [1], the “Average number of photons (Total in-vivo flux)” value stood at 3.40E+07, the “Average number of photons (Liver)” value was found to be 9.34E+06 and the “Average number of photons (Spleen)” value is 3.58E+05.

Regarding `CCCCCCCCOC(CCCOC(=O)CCCCCCCCC(CCCCCCCCC(=O)OCCCC(OCCCCCCCC)OCCCCCCCC)OC(=O)OCCCN(CC)CC)OCCCCCCCC` [compound 859], in test [1], the “Average number of photons (Total in-vivo flux)” value came to 2.31E+07, the “Average number of photons (Liver)” value stood at 3.71E+06 and the “Average number of photons (Spleen)” value stood at 7.21E+04.

In the case of `CCCCCCOC(CCCOC(=O)CCCCCCCCC(CCCCCCCCC(=O)OCCCC(OCCCCC)OCCCCC)OC(=O)OCCCN(CC)CC)OCCCCCC` (centres unmarked) [compound 861], in test [1], the “Average number of photons (Total in-vivo flux)” value came out at 6.67E+07, the “Average number of photons (Liver)” value was 1.17E+07 and the “Average number of photons (Spleen)” value is listed as 3.52E+05.

As for `CCCCCCCOC(CCCOC(=O)CCCCCCCCC(CCCCCCCCC(=O)OCCCC(OCCCCC)OCCCCC)OC(=O)OCCCN(CC)CC)OCCCCCCC` (centres unmarked) [compound 862], in test [1], the “Average number of photons (Total in-vivo flux)” value is reported as 8.57E+07, the “Average number of photons (Liver)” value came to 1.53E+07 and the “Average number of photons (Spleen)” value amounted to 6.67E+05.

Turning to `CCCCCCCCOC(CCCOC(=O)CCCCCCCCC(CCCCCCCCC(=O)OCCCC(OCCCCC)OCCCCC)OC(=O)OCCCN(CC)CC)OCCCCCCCC` (centres unmarked) [compound 863], in test [1], the “Average number of photons (Total in-vivo flux)” value is recorded as 4.43E+07, the “Average number of photons (Liver)” value is 7.13E+06 and the “Average number of photons (Spleen)” value was 2.88E+05.

As to `CCCCCCCCCOC(CCCOC(=O)CCCCCCCCC(CCCCCCCCC(=O)OCCCC(OCCCCC)OCCCCC)OC(=O)OCCCN(CC)CC)OCCCCCCCCC` (centres unmarked) [compound 864], in test [1], the “Average number of photons (Total in-vivo flux)” value is recorded as 3.66E+07, the “Average number of photons (Liver)” value is listed as 6.58E+06 and the “Average number of photons (Spleen)” value is listed as 2.33E+05.

With `CCCCCCCOC(CCCOC(=O)CCCCCCCCC(CCCCCCCCC(=O)OCCCC(OCCCCCC)OCCCCCC)OC(=O)OCCCN(CC)CC)OCCCCCCC` (centres unmarked) [compound 865], in test [1], the “Average number of photons (Total in-vivo flux)” value is listed as 4.34E+07, the “Average number of photons (Liver)” value was determined as 8.60E+06 and the “Average number of photons (Spleen)” value is given as 3.25E+05.

For `CCCCCCCCCOC(CCCOC(=O)CCCCCCCCC(CCCCCCCCC(=O)OCCCC(OCCCCCC)OCCCCCC)OC(=O)OCCCN(CC)CC)OCCCCCCCCC` (centres unmarked) [compound 867], in test [1], the “Average number of photons (Total in-vivo flux)” value turned out to be 2.15E+07, the “Average number of photons (Liver)” value is given as 4.12E+06 and the “Average number of photons (Spleen)” value worked out at 1.36E+05.

As to `CCCCCCCCOC(CCCOC(=O)CCCCCCCCC(CCCCCCCCC(=O)OCCCC(OCCCCCCC)OCCCCCCC)OC(=O)OCCCN(CC)CC)OCCCCCCCC` (centres unmarked) [compound 868], in test [1], the “Average number of photons (Total in-vivo flux)” value came to 3.04E+07, the “Average number of photons (Liver)” value was 5.35E+06 and the “Average number of photons (Spleen)” value turned out to be 1.74E+05.

For `CCCCCCCCCOC(CCCOC(=O)CCCCCCCCC(CCCCCCCCC(=O)OCCCC(OCCCCCCC)OCCCCCCCC)OC(=O)OCCCN(CC)CC)OCCCCCCCCC` (centres unmarked) [compound 869], in test [1], the “Average number of photons (Total in-vivo flux)” value was found to be 1.22E+07, the “Average number of photons (Liver)” value turned out to be 2.15E+06 and the “Average number of photons (Spleen)” value stood at 5.40E+04.

For the compound `CCCCC/C=C\C/C=C\CCCCCCCC(=O)OCC(COC(=O)CCC(OCCCCCCCC)OCCCCCCCC)COC(=O)OCCCN(CC)CC` (centres unmarked) [compound 1001, reference compound], in test [1], the “Average number of photons (Total in-vivo flux)” value is reported as 9.68E+07, the “Average number of photons (Liver)” value was 9.38E+06 and the “Average number of photons (Spleen)” value stood at 1.65E+07.

On to `CCCCC/C=C\C/C=C\CCCCCCCC(=O)OCC(COC(=O)OCCCC(OCCCCCCCC)OCCCCCCCC)COC(=O)OCCCN(CC)CC` (centres unmarked) [compound 1246], for which, in test [1], the “Average number of photons (Total in-vivo flux)” value is reported as 4.92E+07, the “Average number of photons (Liver)” value came out at 6.85E+06 and the “Average number of photons (Spleen)” value is listed as 3.83E+06.

For the compound `CCCCC/C=C\C/C=C\CCCCCCCC(=O)OCC(COCCCCC(OCCCCCCCC)OCCCCCCCC)COC(=O)OCCCN(CC)CC` (centres unmarked) [compound 1248], in test [1], the “Average number of photons (Total in-vivo flux)” value is 8.20E+07, the “Average number of photons (Liver)” value was determined as 1.79E+07 and the “Average number of photons (Spleen)” value is on record as 3.48E+06.

For the compound `CCCCCCOC(CCC(=O)OCC(COC(=O)CCC(OCCCCCC)OCCCCCC)COC(=O)OCCCN(C)C)OCCCCCC` [compound 2021], in test [1], the “Average number of photons (Total in-vivo flux)” value is reported as 4.49E+06, the “Average number of photons (Liver)” value is recorded as 1.19E+06 and the “Average number of photons (Spleen)” value is 1.04E+06.

On to `CCCCCCOC(CCOC(=O)CCCCCCCCC(CCCCCCCCC(=O)OCCC(OCCCCCC)OCCCCCC)OC(=O)OCCCN(C)C)OCCCCCC` [compound 2035], for which, in test [1], the “Average number of photons (Total in-vivo flux)” value was determined as 1.49E+08, the “Average number of photons (Liver)” value stood at 3.12E+07 and the “Average number of photons (Spleen)” value came out at 7.61E+05.

On to `CCCCCCOC(CCCCOC(=O)CCCCCCCCC(CCCCCCCCC(=O)OCCCCC(OCCCCCC)OCCCCCC)OC(=O)OCCCN(C)C)OCCCCCC` [compound 2036], for which, in test [1], the “Average number of photons (Total in-vivo flux)” value came to 5.60E+07, the “Average number of photons (Liver)” value was found to be 1.04E+07 and the “Average number of photons (Spleen)” value is listed as 5.75E+05.

Turning to `CCCCCCOC(CCCOC(=O)CCCCCCC(CCCCCCC(=O)OCCCC(OCCCCCC)OCCCCCC)OC(=O)OCCCN(C)C)OCCCCCC` [compound 2040], in test [1], the “Average number of photons (Total in-vivo flux)” value is recorded as 1.53E+08, the “Average number of photons (Liver)” value is 2.97E+07 and the “Average number of photons (Spleen)” value worked out at 1.11E+07.

`CCCCCCOC(CCCOC(=O)CCCCC(CCCCC(=O)OCCCC(OCCCCCC)OCCCCCC)OC(=O)OCCCN(CC)CC)OCCCCCC` [compound 2042]: the “delivery efficiency to immune cell populations (eGFP expression)” value in test [2] is “different delivery preferences to different immune cells”.

Take `CCCCCCOC(CCCOC(=O)CCCCCCC(CCCCCCC(=O)OCCCC(OCCCCCC)OCCCCCC)OC(=O)OCCCN(CC)CC)OCCCCCC` [compound 2044]: in test [1], the “Average number of photons (Total in-vivo flux)” value was determined as 4.94E+07, the “Average number of photons (Liver)” value was determined as 6.90E+06 and the “Average number of photons (Spleen)” value came to 1.18E+06.
